Reference: PubChem BioAssay AID248 (DTP/NCI, 2004)
Inconclusive results and toxic doses are left out.

System: L1210 leukemia ip in BDF1 mice, survival T/C
Assay: NCI In Vivo Anticancer Drug Screen. Data for tumor model L1210 Leukemia (intraperitoneal) in B6D2F1 (BDF1) mice
Details: higher = longer survival
Outline: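 Survival endpoint. Drug-treated group vs vehicle group, expressed as T divided by C. Tumor passaged by transplantation.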

[1] = endpoint: mean survival time, dose: 100.0 mg/kg/injection, schedule: Q04DX003 (ip), vehicle: Klucel (hydroxypropylcellulose) (HPC)
[2] = endpoint: mean survival time, dose: 100.0 mg/kg/injection, schedule: Q04DX003 (ip), vehicle: saline
[3] = endpoint: mean survival time, dose: 200.0 mg/kg/injection, schedule: Q04DX003 (ip), vehicle: Klucel (hydroxypropylcellulose) (HPC)
[4] = endpoint: mean survival time, dose: 200.0 mg/kg/injection, schedule: Q04DX003 (ip), vehicle: saline
[5] = endpoint: mean survival time, dose: 100.0 mg/kg/injection, schedule: Q01DX001 (ip), vehicle: saline
[6] = endpoint: mean survival time, dose: 200.0 mg/kg/injection, schedule: Q01DX001 (ip), vehicle: saline
[7] = endpoint: mean survival time, dose: 400.0 mg/kg/injection, schedule: Q01DX001 (ip), vehicle: saline
[8] = endpoint: mean survival time, dose: 100.0 mg/kg/injection, schedule: Q01DX009 (ip), vehicle: Klucel (hydroxypropylcellulose) (HPC)
[9] = endpoint: mean survival time, dose: 200.0 mg/kg/injection, schedule: Q01DX009 (ip), vehicle: Klucel (hydroxypropylcellulose) (HPC)
[10] = endpoint: mean survival time, dose: 400.0 mg/kg/injection, schedule: Q01DX009 (ip), vehicle: Klucel (hydroxypropylcellulose) (HPC)
[11] = endpoint: mean survival time, dose: 100.0 mg/kg/injection, schedule: Q01DX001 (ip), vehicle: Klucel (hydroxypropylcellulose) (HPC)
[12] = endpoint: mean survival time, dose: 200.0 mg/kg/injection, schedule: Q01DX001 (ip), vehicle: Klucel (hydroxypropylcellulose) (HPC)
[13] = endpoint: mean survival time, dose: 400.0 mg/kg/injection, schedule: Q01DX001 (ip), vehicle: Klucel (hydroxypropylcellulose) (HPC)
[14] = endpoint: mean survival time, dose: 400.0 mg/kg/injection, schedule: Q04DX003 (ip), vehicle: Klucel (hydroxypropylcellulose) (HPC)
[15] = endpoint: mean survival time, dose: 100.0 mg/kg/injection, schedule: Q04DX002 (ip), vehicle: saline with Tween-80
[16] = endpoint: mean survival time, dose: 100.0 mg/kg/injection, schedule: Q04DX003 (ip), vehicle: saline with Tween-80
[17] = endpoint: mean survival time, dose: 200.0 mg/kg/injection, schedule: Q04DX003 (ip), vehicle: saline with Tween-80
[18] = endpoint: mean survival time, dose: 400.0 mg/kg/injection, schedule: Q04DX003 (ip), vehicle: saline with Tween-80
[19] = endpoint: mean survival time, dose: 400.0 mg/kg/injection, schedule: Q04DX003 (ip), vehicle: saline
[20] = endpoint: mean survival time, dose: 100.0 mg/kg/injection, schedule: Q04DX002 (ip), vehicle: Klucel (hydroxypropylcellulose) (HPC)
[21] = endpoint: mean survival time, dose: 200.0 mg/kg/injection, schedule: Q04DX002 (ip), vehicle: Klucel (hydroxypropylcellulose) (HPC)
[22] = endpoint: mean survival time, dose: 100.0 mg/kg/injection, schedule: Q01DX009 (ip), vehicle: saline
[23] = endpoint: mean survival time, dose: 200.0 mg/kg/injection, schedule: Q01DX009 (ip), vehicle: saline
[24] = endpoint: mean survival time, dose: 50.0 mg/kg/injection, schedule: Q01DX001 (ip), vehicle: carboxymethylcellulose (CMC)

Compound: CC(C)(O)C(Cl)(Cl)Cl
- T/C [1]: 101 % of control
- T/C [2]: 98 % of control
- T/C [3]: 95 % of control
- T/C [4]: 100 % of control

Compound: CCOC(=O)/C=C(/Nc1ccc(OC)cc1[N+](=O)[O-])C(=O)OCC
- T/C [5]: 95 % of control
- T/C [6]: 95 % of control
- T/C [7]: 104 % of control

Compound: CNC(=O)NCCCCCCCCCCC(=O)O
- T/C [8]: 104 % of control
- T/C [9]: 91 % of control
- T/C [10]: 106 % of control

Compound: COc1cccc(/C=N/NC(=O)CNC(=O)Nc2cccc([N+](=O)[O-])c2)c1OC
- T/C (endpoint: mean survival time, dose: 50.0 mg/kg/injection, schedule: Q01DX009 (ip), vehicle: saline with Tween-80): 89 % of control
- T/C (endpoint: mean survival time, dose: 100.0 mg/kg/injection, schedule: Q01DX009 (ip), vehicle: saline with Tween-80): 96 % of control
- T/C (endpoint: mean survival time, dose: 200.0 mg/kg/injection, schedule: Q01DX009 (ip), vehicle: saline with Tween-80): 89 % of control

Compound: CCCC1COCC(CC)/C1=N\Nc1ccc([N+](=O)[O-])cc1[N+](=O)[O-] (configuration not stated)
- T/C [11]: 91 % of control
- T/C [12]: 94 % of control
- T/C [13]: 91 % of control

Compound: Cc1ccc(S(=O)(=O)NCCCc2c(C)nc(N)n(Cc3cccc([N+](=O)[O-])c3)c2=O)cc1
- T/C [11]: 103 % of control
- T/C [12]: 91 % of control
- T/C [13]: 103 % of control

Compound: COC(=O)CCN(c1cccc(Cl)c1)S(=O)(=O)c1ccc(C)cc1
- T/C [5]: 98 % of control
- T/C [6]: 92 % of control
- T/C [7]: 98 % of control

Compound: C=CCOc1ccccc1Cl
- T/C [8]: 110 % of control
- T/C [1]: 94 % of control
- T/C [9]: 88 % of control
- T/C [3]: 106 % of control
- T/C [10]: 106 % of control
- T/C [14]: 103 % of control

Compound: C=CCNC(=S)OCC
- T/C [15]: 100 % of control
- T/C (endpoint: mean survival time, dose: 200.0 mg/kg/injection, schedule: Q04DX002 (ip), vehicle: saline with Tween-80): 97 % of control
- T/C (endpoint: mean survival time, dose: 400.0 mg/kg/injection, schedule: Q04DX002 (ip), vehicle: saline with Tween-80): 103 % of control

Compound: c1ccc([Si]2(c3ccccc3)c3ccccc3-c3ccccc32)cc1
- T/C [16]: 94 % of control
- T/C [17]: 87 % of control
- T/C [18]: 87 % of control

Compound: c1ccc(-c2nc(-c3ccccn3)nc(-c3ccccn3)n2)nc1
- T/C (endpoint: mean survival time, dose: 5.0 mg/kg/injection, schedule: Q01DX001 (ip), vehicle: saline): 107 % of control
- T/C (endpoint: mean survival time, dose: 10.0 mg/kg/injection, schedule: Q01DX001 (ip), vehicle: saline): 96 % of control
- T/C (endpoint: mean survival time, dose: 20.0 mg/kg/injection, schedule: Q01DX001 (ip), vehicle: saline): 100 % of control
- T/C (endpoint: mean survival time, dose: 40.0 mg/kg/injection, schedule: Q01DX001 (ip), vehicle: saline): 93 % of control
- T/C (endpoint: mean survival time, dose: 80.0 mg/kg/injection, schedule: Q01DX001 (ip), vehicle: saline): 91 % of control

Compound: CCCCCCCC/C=C\CCCCCCCC(=O)OCC
- T/C (endpoint: mean survival time, dose: 100.0 mg/kg/injection, schedule: Q01DX001 (ip), vehicle: saline with Tween-80): 98 % of control
- T/C (endpoint: mean survival time, dose: 200.0 mg/kg/injection, schedule: Q01DX001 (ip), vehicle: saline with Tween-80): 107 % of control
- T/C (endpoint: mean survival time, dose: 400.0 mg/kg/injection, schedule: Q01DX001 (ip), vehicle: saline with Tween-80): 95 % of control

Compound: CC12CC3(C)CC(C)(C1)CC(NC(=O)N(CCF)N=O)(C2)C3
- T/C (endpoint: mean survival time, dose: 30.0 mg/kg/injection, schedule: Q01DX001 (ip), vehicle: other): 113 % of control
- T/C (endpoint: mean survival time, dose: 40.0 mg/kg/injection, schedule: Q01DX001 (ip), vehicle: other): 117 % of control
- T/C (endpoint: mean survival time, dose: 187.0 mg/kg/injection, schedule: Q01DX001 (ip), vehicle: other): 151 % of control
- T/C (endpoint: mean survival time, dose: 375.0 mg/kg/injection, schedule: Q01DX001 (ip), vehicle: other): 87 % of control

Compound: O=C1CC(=P(c2ccccc2)(c2ccccc2)c2ccccc2)C(=O)N1c1cccc2ccc(O)cc12
- T/C (endpoint: mean survival time, dose: 75.0 mg/kg/injection, schedule: Q01DX001 (ip), vehicle: saline): 101 % of control
- T/C (endpoint: mean survival time, dose: 150.0 mg/kg/injection, schedule: Q01DX001 (ip), vehicle: saline): 96 % of control
- T/C (endpoint: mean survival time, dose: 300.0 mg/kg/injection, schedule: Q01DX001 (ip), vehicle: saline): 95 % of control

Compound: NC1(N)Sc2nc3ccccc3nc2S1
- T/C [15]: 101 % of control

Compound: Cn1c(=O)c2c(ncn2CC(O)CO)n(C)c1=O (configuration not stated) (tested in a mixture with another compound)
- T/C [16]: 101 % of control
- T/C [17]: 98 % of control
- T/C [18]: 95 % of control

Compound: O=C(O)C/C=C/C(=O)NCc1cccnc1
- T/C [5]: 97 % of control
- T/C [6]: 97 % of control
- T/C [7]: 88 % of control

Compound: CN(N=O)C(=O)NC1C(O)C(CO)OC1n1ccc(=O)[nH]c1=O (configuration not stated)
- T/C [2]: 98 % of control
- T/C [4]: 96 % of control
- T/C [19]: 102 % of control

Compound: O=C(NN1C(=O)c2cccc3cccc(c23)C1=O)NN1C(=O)c2cccc3cccc(c23)C1=O
- T/C [20]: 92 % of control
- T/C [21]: 92 % of control

Compound: CCCC(C)CC(=O)O (configuration not stated)
- T/C [5]: 102 % of control
- T/C [6]: 102 % of control
- T/C [7]: 98 % of control

Compound: NCc1ccccc1F
- T/C [22]: 100 % of control
- T/C [2]: 107 % of control
- T/C [23]: 90 % of control
- T/C [4]: 100 % of control
- T/C [19]: 102 % of control

Compound: O=C(O)/C=C/C(=O)c1ccccc1
- T/C [24]: 109 % of control

Compound: O=C1C(I)=CC(=C(c2cc(I)c(O)c(I)c2)c2ccccc2C(=O)O)C=C1I
- T/C [8]: 94 % of control
- T/C [1]: 98 % of control
- T/C [9]: 89 % of control
- T/C [3]: 98 % of control
- T/C [10]: 98 % of control
- T/C [14]: 98 % of control

Compound: Cc1cc(N(CCCl)CCCl)ccc1N=Nc1ccccc1
- T/C (endpoint: median survival time, dose: 100.0 mg/kg/injection, schedule: Q01DX009 (ip), vehicle: Klucel (hydroxypropylcellulose) (HPC)): 98 % of control
- T/C (endpoint: median survival time, dose: 200.0 mg/kg/injection, schedule: Q01DX009 (ip), vehicle: Klucel (hydroxypropylcellulose) (HPC)): 97 % of control
- T/C (endpoint: median survival time, dose: 400.0 mg/kg/injection, schedule: Q01DX009 (ip), vehicle: Klucel (hydroxypropylcellulose) (HPC)): 93 % of control

Compound: CCOC(=O)C(NC(=O)NC)C(=O)OCC
- T/C [8]: 98 % of control
- T/C [1]: 102 % of control
- T/C [9]: 93 % of control
- T/C [3]: 98 % of control
- T/C [10]: 102 % of control
- T/C [14]: 96 % of control

Compound: CCCCCOC(=O)Nc1cccc2ccccc12
- T/C [20]: 94 % of control
- T/C [21]: 94 % of control
- T/C (endpoint: mean survival time, dose: 400.0 mg/kg/injection, schedule: Q04DX002 (ip), vehicle: Klucel (hydroxypropylcellulose) (HPC)): 98 % of control

Compound: S=C=NCc1ccc(Br)cc1
- T/C (endpoint: mean survival time, dose: 1.25 mg/kg/injection, schedule: Q01DX009 (ip), vehicle: other): 95 % of control
- T/C (endpoint: mean survival time, dose: 2.5 mg/kg/injection, schedule: Q01DX009 (ip), vehicle: other): 100 % of control
- T/C (endpoint: mean survival time, dose: 2.5 mg/kg/injection, schedule: Q04DX003 (ip), vehicle: other): 103 % of control
- T/C (endpoint: mean survival time, dose: 5.0 mg/kg/injection, schedule: Q01DX009 (ip), vehicle: other): 97 % of control
- T/C (endpoint: mean survival time, dose: 5.0 mg/kg/injection, schedule: Q04DX003 (ip), vehicle: other): 103 % of control
- T/C (endpoint: mean survival time, dose: 10.0 mg/kg/injection, schedule: Q01DX001 (ip), vehicle: other): 93 % of control
- T/C (endpoint: mean survival time, dose: 10.0 mg/kg/injection, schedule: Q04DX003 (ip), vehicle: other): 88 % of control

Compound: Cc1ccccc1C(=O)c1ccccc1C(=O)c1ccccc1
- T/C [24]: 98 % of control
- T/C (endpoint: mean survival time, dose: 100.0 mg/kg/injection, schedule: Q01DX001 (ip), vehicle: carboxymethylcellulose (CMC)): 88 % of control
- T/C [22]: 97 % of control
- T/C (endpoint: mean survival time, dose: 200.0 mg/kg/injection, schedule: Q01DX001 (ip), vehicle: carboxymethylcellulose (CMC)): 93 % of control
- T/C [23]: 95 % of control
- T/C (endpoint: mean survival time, dose: 400.0 mg/kg/injection, schedule: Q01DX001 (ip), vehicle: carboxymethylcellulose (CMC)): 101 % of control
- T/C (endpoint: mean survival time, dose: 400.0 mg/kg/injection, schedule: Q01DX009 (ip), vehicle: saline): 97 % of control
